The source of these data is PMC7734281, “Functionalized Oxoindolin Hydrazine Carbothioamide Derivatives as Highly Potent Inhibitors of Nucleoside Triphosphate Diphosphohydrolases” (Frontiers in Pharmacology, 2020).

The subject of test [1] is mice pancreatic islets. Kind of test: Glucose stimulated insulin secretion in isolated mice islets (ELISA). The test is classed as cell-based, BALB/c mice. The note with it: basal glucose 3 mM. For orientation: An ELISA detects its analyte on a solid surface through an enzyme-linked reagent.
The test system of test [2] is NTPDase3 mRNA. Briefly: NTPDase3 mRNA expression in mice islets by real time qPCR. The test is classed as cell-based. The method, then: Freshly isolated mice islets were incubated in KRBB at 37°C with glucose (3 mM). After 45 min, these islets were treated with test compounds in KRBB at 37°C for 3 h, in the presence of stimulatory glucose concentration. Once the incubation was complete, supernatant was removed carefully, and RNA was extracted from these islets.
Total RNA was extracted using TRIzol reagent, according to manufacturer’s instruction. The concentration of isolated RNA was quantified by using Lvis plate method (FLUOstar Omega, BMG Labtech, Ortenberg, Germany). This RNA was then reverse transcribed to cDNA in a total reaction volume of 20 µl. Briefly, a reaction mixture containing RNA (1 µg) and oligo-dT (20 μM, 1 µl) was prepared and volume was adjusted to 12 µl with nuclease free water. The prepared mixture was incubated at 65°C for 5 min and then immediately chilled on ice. Afterward, 8 µl of master mix containing 5X reaction buffer (4 µl), rnase inhibitor (1 µl), dNTPs mix (10 mM, 2 µl) and reverse transcriptase (1 µl) was added to above sample. After gentle pipetting, sample was run under following conditions: 25°C for 5 min, 42°C for 70 min and 70°C for 5 min. Once the cDNA was synthesized, real time quantitative PCR was conducted by using PikoReal 96 Real-Time PCR system (Thermo Scientific, Vantaa, Finland). […] Relative expression was determined by normalization to β actin mRNA by ΔΔCT method.
(In qPCR the cycle at which signal appears reflects the starting amount.)

Test [3] addresses T1, h-NTPDase2 (Homo sapiens, UniProt Q9Y5L3).
T1 construct: made in house; host or cells: COS-7 cells, transient transfection; crude protein extract after sonication
T1 sequence (Q9Y5L3 1-495): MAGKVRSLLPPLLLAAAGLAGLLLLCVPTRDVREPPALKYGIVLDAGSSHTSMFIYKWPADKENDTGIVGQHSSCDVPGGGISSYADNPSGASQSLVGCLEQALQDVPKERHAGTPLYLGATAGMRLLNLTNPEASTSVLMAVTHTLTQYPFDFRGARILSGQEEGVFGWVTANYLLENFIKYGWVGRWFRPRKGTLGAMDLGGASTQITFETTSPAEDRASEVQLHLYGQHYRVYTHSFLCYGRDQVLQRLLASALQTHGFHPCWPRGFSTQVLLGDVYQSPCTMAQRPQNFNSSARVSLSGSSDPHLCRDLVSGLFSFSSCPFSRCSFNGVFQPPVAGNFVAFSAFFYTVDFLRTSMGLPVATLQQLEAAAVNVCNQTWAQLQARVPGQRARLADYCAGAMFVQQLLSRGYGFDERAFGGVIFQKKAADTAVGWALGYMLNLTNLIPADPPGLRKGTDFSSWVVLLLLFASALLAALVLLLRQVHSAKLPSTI
Briefly: h-NTPDase2 inhibition, malachite green assay. The format is biochemical. The conditions noted are these: Lineweaver-Burk plot.

“Also recorded” adds a separate entry of the source.

In the case of `CCNC(=S)N/N=C1\C(=O)Nc2ccccc21` [8m, (Z)-N-ethyl-2-(2-oxoindolin-3-ylidene)hydrazine-1-carbothioamide], the “Effect on insulin secretion at basal glucose level” value in test [1] is recorded as “no effect on insulin secretion; also recorded: did not produce any significant effect”. In test [2] (mice islets treated 3 h), the “Effect on expression level of β-actin (housekeeping gene)” value is “not affected”. Further, in test [2] (mice islets treated 3 h at stimulatory glucose, normalized to β actin, versus control), the “Effect on NTPDase3 gene expression (mRNA)” value is on record as “no significant effect (p > 0.05); also recorded: had not suppressed the gene expression of NTPDase3; also recorded: without affecting the NTPDase3 gene expression”.

Regarding `COc1ccc(OC)c(NC(=S)N/N=C2\C(=O)Nc3ccccc32)c1` [8j, (Z)-N-(2,5-dimethoxyphenyl)-2-(2-oxoindolin-3-ylidene)hydrazine-1-carbothioamide], the “Mode of inhibition of h-NTPDase2” value in test [3] is given as “competitive”.
